For data set [1], the system named is Klebsiella pneumoniae KPN+19-15. Type of data set: cell-based. To be noted: Klebsiella pneumoniae KPN 19-15. The gist of the method: (§1)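 In this CLSI-based assay, serially halved compound (final 64–0.03 mg/L) was exposed to (2-4) × 10^5 CFU/mL bacteria in MH broth at 35-37°C for 16-20 h. The readout was the MIC.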
In data set [2] the test system is Acinetobacter baumannii NCTC 13304 (OXA-27). Type of data set: cell-based. The conditions noted are these: Acinetobacter baumannii NCTC 13304 (OXA-27). In outline: as §1
Data set [3] relates to Pseudomonas aeruginosa ATCC 27853. Type of data set: cell-based. The conditions noted are these: Pseudomonas aeruginosa ATCC27853. The gist of the method:
as §1

Data set [4] concerns Acinetobacter baumannii ABA19-1. Type of data set: cell-based. The conditions noted are these: Acinetobacter baumannii ABA19-1. The gist of the method:
as §1

Data set [5] deals with Pseudomonas aeruginosa PAE19-3. Type of data set: cell-based. The conditions noted are these: Pseudomonas aeruginosa PAE19-3. The gist of the method: as §1
Data set [6] concerns Escherichia coli ATCC BAA-2340 (KPC). Type of data set: cell-based. To be noted: Escherichia coli ATCC BAA-2340 (KPC). The gist of the method:
as §1

Data set [7] relates to Escherichia coli ATCC BAA-2523. Type of data set: cell-based. The conditions noted are these: Escherichia coli ATCC BAA-2523. In outline:
as §1

Data set [8] concerns Klebsiella pneumoniae ATCC BAA-1705 (KPC). Type of data set: cell-based. The conditions noted are these: Klebsiella pneumoniae ATCC BAA-1705 (KPC). The gist of the method:
as §1

In data set [9] the test system is Healthy ICR mice. In words: Acute toxicity test in healthy mice, single tail vein injection. Type of data set: in vivo. To be noted: within 7 days. As to the method: (§2) Healthy ICR mice aged 5-6 weeks were selected, with 5-10 mice in each group, and administered via a single tail vein injection at an administration volume of 20 mL/kg. In the preliminary test, the drug dose concentrations that caused 100% mortality and no mortality in mice after a single intravenous injection were determined. Based on this dose range, 4-5 dose groups were set up, with a dose ratio of 1:0.5 to 1:0.8 between adjacent groups. The mortality of animals within 7 days after administration was recorded. According to the mortality rate of experimental animals in each group, the median lethal dose (LD50) of the test samples, i.e., the dose causing 50% mortality of the tested animals, was calculated by the Bliss method.

Assay in data set [10]: as above
Type of data set: in vivo. To be noted: mouse, in vivo, iv; ICR mice, single tail vein injection, Bliss method. The method, then: as §2

Each structure is given as a SMILES string. Values after ≈ are worked out from the molar mass of the structure shown. Bridge positions count the residues as written; N and C are the ends. Square brackets hold non-standard residues; d marks the D form. Peptide text beside a SMILES is read from it. * marks the point of attachment. Heptanoyl(6-Me) = CC(C)CCCCC(=O)*; Dab = NCC[C@H](N)C(=O)O; Dap = NC[C@H](N)C(=O)O

In the case of `CC(C)CCCCC(=O)N[C@@H](CCN)C(=O)N[C@H](C(=O)N[C@@H](CN)C(=O)N[C@H]1CCNC(=O)[C@H]([C@@H](C)O)NC(=O)[C@H](CCN)NC(=O)[C@H](CCN)NC(=O)[C@H]([C@@H](C)O)NC(=O)[C@@H](Cc2ccccc2)NC(=O)[C@H](CCN)NC1=O)[C@@H](C)O` [Compound 7, 6-methylheptanoyl-Dab-Thr-Dap-ring(4-10)[Dab-Dab-D-Phe-Thr-Dab-Dab-Thr]] ({Heptanoyl(6-Me)}-[Dab]T[Dap][Dab][Dab][dF]T[Dab][Dab]T; lactam 4-C), the MIC (commonly the least concentration at which growth counts as inhibited) in data set [1] is no more than 0.03 µg/mL; in data set [2], no more than 0.03 µg/mL; in [3] it was no more than 0.03 µg/mL; in [4] it was no more than 0.03 µg/mL; in data set [5], 0.125 µg/mL (≈ 0.107 µM); in data set [6], no more than 0.03 µg/mL. Besides, the minimum inhibitory concentration (MIC) in [7] and in [8] was no more than 0.03 µg/mL each time. Besides, the mortality rate is reported as 0% in data set [9] (single tail vein injection 15.36 mg/kg), 12.5% in [9] (single tail vein injection 19.2 mg/kg), 25% in data set [9] (single tail vein injection 24 mg/kg) and 100% in [9] (single tail vein injection 30 mg/kg). Further, the LD50 (in general, the dose expected to kill half of the subjects tested) at 168 h in data set [10] was determined as 24.4 mg/kg.

Values taken from EP4725957A1, “GROUP OF CYCLIC ALKALINE LIPOPEPTIDE COMPOUNDS, AND PREPARATION METHOD THEREFOR AND USE THEREOF” (Institute of Medicinal Biotechnology, Chinese Academy of …, priority 2023, dated 2024).
